Measurements reported in patent US20090252717A1, “Compositions and Methods for Treating Polyglutamine-Expansion Neurodegenerative Diseases” (priority 2006, published 2009).
Entries after “also recorded” stand apart in the source; their conditions may differ.

Tests used:
kinesin-1 = assay: Kinesin-1 ATPase assay; type: biochemical, rat; settings: in vitro, up to equimolar levels of androgen receptor and kinesin-1
Protocol: Kinesin-1 ATPase Assays. Kinesin-1 basal and microtubule-activated ATPase activity was assayed according to known methods (Morfini, et al. (2002) supra; Tsai, et al. (2000) Mol. Biol. Cell 11:2161-2173). Briefly, purified rat brain kinesin and in vitro-translated androgen receptor constructs were incubated with or without TAXOL-stabilized MAP-free microtubules (1 mg/ml). Assays were started by addition of 1 mCi γ-^32P ATP (ICN Biochemicals, Costa Mesa, Calif.) and incubated for 25 minutes at 37° C. Reactions were stopped with 10% SDS and aliquots spotted on PEI-cellulose plates. Chromatograms were developed in 0.5 M LiCl/1 M formic acid and spots for ^32P and γ-^32P ATP counted to obtain percent of total ^32P recovered as free phosphate.

fast axonal transport [1] = assay: Vesicle motility assay in isolated squid axoplasm, perfusion of recombinant protein alone; type: cell-based, squid Loligo pealeii; settings: protein alone
Protocol: (§1) Recombinant Polypeptides. Wild-type androgen receptor and polyQ-AR polypeptides were produced by in vitro transcription/translation (TNT T7-Coupled Reticulocyte Lysate System; Promega, Madison, Wis.) according to manufacturer's protocols. Typically, 1.8 μg of plasmid was transcribed in 50 μl reaction mix. To assess protein levels, parallel reactions were performed incorporating ^35S-labeled methionine (Amersham) or quantitative immunoblots were performed. Protein concentrations were typically 0.2-0.5 nM. In vitro translated androgen receptor has been characterized and shown to be functional (Kuiper, et al. (1993) Biochem. J. 296(Pt 1):161-7). In vitro translation products were briefly centrifuged to eliminate translation machinery, and supernatants frozen in liquid N2 until used.
(§2) Genes encoding human wild-type Huntingtin (Htt) (i.e., Q20, residues 1-548; Szebenyi, et al. (2003) supra) and polyQ-expanded Htt (i.e., Q46, residues 1-949; Qin, et al. (2004) J. Neurosci. 24(1):269-81) were cloned into the pcDNA.3 vector and produced by in vitro transcription/translation as described for the androgen receptor. Alternatively, shorter constructs (Htt exon1) were expressed in E. coli as GST-tagged proteins.
(§3) Squid Axoplasm. Isolated squid axoplasm represents a unique experimental system to evaluate axonal-specific effects and pathogenic mechanisms. This model was instrumental in the original discovery of kinesin-1 (Brady (1985) Nature 317:73-75, novel pathways for fast axonal transport (Morfini, et al. (2002) supra; Morfini, et al. (2004) supra), and axonal-specific phosphorylation events (Grant & Pant (2000) J. Neurocytol. 29:843-72). Bidirectional membrane-bound organelle movements are observed with properties unchanged from intact axons for hours after removal of plasma membrane (Brady, et al. (1982) Science 218:1129-1131). Video-enhanced microscopic techniques allow quantitative analysis of membrane-bound organelle movement in fast axonal transport. Typical kinesin-dependent transport rates are 1.5-2.0 μm/s, whereas retrograde, cytoplasmic dynein-dependent rates are 1-1.3 μm/s in perfused axoplasms. These rates are maintained with little (<10%) or no reduction for >1 hour after perfusion with control buffer (Brady, et al. (1982) supra). The lack of permeability barriers allows perfusion of the axoplasm with a variety of effector molecules at known concentrations. Effectors of interest include nucleotides, pharmacological inhibitors, recombinant polypeptides, and antibodies. […]
(§4) Motility Studies in Isolated Axoplasm. […] Preparations were analyzed on a ZEISS AXIOMAT with a 100×, 1.3 n.a. objective, and DIC optics. […] Organelle velocities were measured with a Photonics Microscopy C2117 video manipulator (Hamamatsu).

[2] = system: neurofilament phosphorylation; assay: Neurofilament phosphorylation in squid axoplasm (immunoblot, SMI32); type: cell-based; settings: axoplasm incubated with protein
Protocol: Phosphorylation Studies in Squid Axoplasm. Three to four axoplasms were triturated in KB buffer (KB: 10 mM HEPES pH 7.4, 10 mM MgCl2, 1 mM DTT) and aliquoted. Individual reactions with corresponding in vitro-translated androgen receptor constructs were started by adding radiolabeled ATP to 100 μM. Reactions were done in 50 μl, incubated for 20 minutes at room temperature and stopped with 50 μl of 2× sample buffer. Lysates were separated by SDS-PAGE and analyzed by autoradiography. For certain indicated assays, 2 axoplasms per tube were incubated in X/2 buffer for 50 minutes with corresponding in vitro-translated androgen receptor construct, then 50 μl of 2× sample buffer was added and samples analyzed by immunoblot.

fast axonal transport [3] = settings: cited from earlier work
[4] = system: polyQ-AR-induced inhibition of fast axonal transport; assay: Vesicle motility assay in isolated squid axoplasm, co-perfusion with polyQ-AR; type: cell-based, squid Loligo pealeii
Protocol: as §1
as §3, with “supra).” for “supra). The lack of permeability barriers allows perfusion of the axoplasm with a variety of effector molecules at known concentrations. Effectors of interest include nucleotides, pharmacological inhibitors, recombinant polypeptides, and antibodies.”
as §4

[5] = system: wild-type androgen receptor SH-SY5Y cells; assay: Neurite outgrowth of differentiated SH-SY5Y cells expressing wild-type androgen receptor; type: cell-based, human; settings: 10 μM
Protocol: (§5) SH-SY5Y Cell Culture and Pharmacological Inhibition. Androgen receptor constructs containing wild-type androgen receptor (Q20) and pathogenic androgen receptor (Q56) tracts were prepared and stably transfected into SH-SY5Y human neuroblastoma cells (Avila, et al. (2003) Exp. Biol. Med. (Maywood) 228:982-90). Wild-type and 902-6 cells (expressing both full-length polyQ-AR and a truncated N-terminal androgen receptor fragment (≈25 kD) that accumulated in cytoplasm) were grown and differentiated (Szebenyi, et al. (2003) supra). Cells were plated at densities of 10,000 cells/cm^2 on 10-cm tissue culture dishes for biochemical studies, and at 3000-5000 cells/cm^2 on 4-well tissue-tech chamber slides (Becton-Dickinson, Mountain View, Calif.) for immunocytochemistry and morphometric studies. For inhibitor studies, cells were differentiated with 10 μM retinoic acid in serum for 5-6 days, and then switched to serum-free medium supplemented with 25 ng/ml BDNF (Alomone Laboratories, Jerusalem, Israel) with or without SB203580 inhibitor. Cell morphologies were evaluated after 3 days in BDNF±SB203580 (Szebenyi, et al. (2003) supra).

[6] = system: polyQ-Htt-induced inhibition of fast axonal transport; assay: Vesicle motility assay in isolated squid axoplasm, co-perfusion with polyQ-Htt; type: cell-based, squid Loligo pealeii; settings: co-perfused with polyQ-Htt, concentration not given
Source text: as §2
Squid Axoplasm. Isolated squid axoplasm represents a unique experimental system to evaluate axonal-specific effects and pathogenic mechanisms. This model was instrumental in the original discovery of kinesin-1 (Brady (1985) Nature 317:73-75, novel pathways for fast axonal transport (Morfini, et al. (2002) supra; Morfini, et al. (2004) supra), and axonal-specific phosphorylation events (Grant & Pant (2000) J. Neurocytol. 29:843-72). Bidirectional membrane-bound organelle movements are observed with properties unchanged from intact axons for hours after removal of plasma membrane (Brady, et al. (1982) Science 218:1129-1131). Video-enhanced microscopic techniques allow quantitative analysis of membrane-bound organelle movement in fast axonal transport. […]
Motility Studies in Isolated Axoplasm. […] Preparations were analyzed on a ZEISS AXIOMAT with a 100×, 1.3 n.a. objective, and DIC optics. […]

[7] = system: p38α, p38β, JNK2, and JNK3; settings: cited from earlier work
[8] = system: 902-6 SH-SY5Y cells (polyQ-AR); assay: Neurite outgrowth of differentiated SH-SY5Y cells expressing polyQ-AR; type: cell-based, human
Protocol: as §5

[9] = co-perfused with polyQ-AR, concentration not given

Compound	effect on basal and microtubule-activated ATPase activity of kinesin-1 (kinesin-1)	mean fast axonal transport rate (fast axonal transport [1]; 20-30 minutes) [μm/sec]	mean fast axonal transport rate (fast axonal transport [1]; 40-50 minutes) [μm/sec]	effect on polyQ-AR-induced inhibition of fast axonal transport [4, 9]	effect on polyQ-Htt-induced inhibition of fast axonal transport [6]	further results
wild-type androgen receptor: wild-type androgen receptor (Q20) produced by in vitro transcription/translation	not affected	1.71±0.03	1.77±0.04	–	–	–
polyQ-AR: polyglutamine-expanded androgen receptor (Q56) produced by in vitro transcription/translation	failed to affect either basal or microtubule-activated ATPase activity of kinesin-1	1.25±0.03	1.08±0.02	–	–	SMI32 immunoreactivity [2]: reduced; level that inhibits fast axonal transport (fast axonal transport [3]): < 1 nM
C=C1[C@@H](O)[C@@H]2O[C@]3(CC[C@H](/C=C/[C@@H](C)[C@@H]4CC(C)=C[C@@]5(O[C@H](C[C@@](C)(O)C(=O)O)CC[C@H]5O)O4)O3)CC[C@H]2O[C@@H]1[C@@H](O)C[C@H](C)[C@H]1O[C@@]2(CCCCO2)CC[C@H]1C [okadaic acid]	–	–	–	failed to prevent polyQ-AR-induced fast axonal transport inhibition	–	–
C[S+]([O-])c1ccc(-c2nc(-c3ccncc3)c(-c3ccc(F)cc3)[nH]2)cc1 (stereo not shown) [SB203580]	–	–	–	–	prevented the effects of polyQ-Htt on fast axonal transport	neurite outgrowth [5]: increasing neurite outgrowth; kinases inhibited [7]: inhibits p38α, p38β, JNK2, and JNK3; proportion of cells with long neurites (>80 μm in length) ([8]; 10 μM or 20 μM): dramatic and dose-dependent increase in the proportion of cells that extended long neurites; also recorded: significant increase in the number of polyQ-AR cells extending long neurites; neurite length / outgrowth ([8]; 10 μM, 3 days BDNF): increasing neurite outgrowth; also recorded: increased in length; neurite length / morphology distribution ([8]; 20 μM, 3 days BDNF): nearly indistinguishable between wild-type and 902-6 cells; also recorded: indistinguishable from untreated wild-type androgen receptor cells; effect on inhibition of neurite outgrowth by polyQ-AR ([8]; added to culture media, 3 days BDNF): overcame inhibition of neurite outgrowth by polyQ-AR; also recorded: reverses inhibition of neurite formation by polyQ-AR; effect on polyQ-AR-induced inhibition of fast axonal transport ([4]; 10 μM co-perfused with polyQ-AR): completely blocked the inhibition of fast axonal transport in both anterograde and retrograde directions
CCSCc1ccc2c(c1)c1c3c(c4c5cc(CSCC)ccc5n5c4c1n2[C@H]1C[C@](O)(C(=O)OC)[C@]5(C)O1)CNC3=O [CEP-1347]	–	–	–	prevented the effects of polyQ-Htt and polyQ-AR on fast axonal transport	prevented the effects of polyQ-Htt and polyQ-AR on fast axonal transport	–
